We go through 22 compounds from patent publication US9951063B2, “8-(piperazin-1-yl)-1,2,3,4-tetrahydro-isoquinoline derivatives” (IDORSIA PHARMACEUTICALS LTD, priority 2014, dated 2018).

The target of this experiment is human CXCR3A (Homo sapiens (Human), UniProt P49682). The experiment in a line: FLIPR assay (inhibition of CXCL10-induced calcium signal). To be noted: engineered CHO-K1 cells expressing human CXCR3A coupled to Galpha(16); Fluo-4-AM; CXCL10 agonist 20 nM; mean values where determined several times. The experiment is classed as cell-based. As for the experimental part: The bioactivity of compounds is tested in a fluorometric imaging plate reader (FLIPR: Molecular Devices) using engineered CHO-K1 cells expressing the human CXCR3A (GenBank: AY242128) coupled to a G protein (Galpha(16)). Cells are plated the day prior to bioassay in F12 medium supplemented with 10% FBS and G418 and hygromycin antibiotics to maintain recombinant selection. At the day of bioassay, cells are washed and dye loaded for one hour with Fluo-4-AM (Invitrogen) in Hanks Balanced Salt Solution (Invitrogen), buffered with 20 mM Hepes at pH 7.4 and sodium bicarbonate (0.038%), containing 5 mM probenecid. This buffer, but lacking the dye and containing probenecid at a concentration of 2.5 mM, is also used for washing steps (wash buffer); or lacking both dye and probenecid but supplemented with 0.1% BSA for compound dilution steps (dilution buffer). Cells are washed free of excess dye and 60 microliter of wash buffer is added. Stock solutions of test compounds are made up at a concentration of 10 mM in DMSO, and serially diluted in dilution buffer to concentrations required for inhibition dose response curves. After a 10 minute incubation period at 37° C., 10 microliters of each compound dilution are transferred from a compound plate to the plate containing the recombinant cells in the FLIPR instrument according to the manufacturer's instructions. Following basal readings, 10 microliter CXCL10 agonist at a concentration of 20 nM (from Peprotech) is added, again using the FLIPR instrument. Changes in fluorescence are monitored before and after addition of the test compounds. Emission peak values above base level after CXCL10 addition are exported after base line subtraction.
The calculated IC50 values may fluctuate depending on the daily assay performance. Fluctuations of this kind are known to those skilled in the art. In the case where IC50 values have been determined several times for the same compound, mean values are given.

Chain of human CXCR3A (P49682 whole entry): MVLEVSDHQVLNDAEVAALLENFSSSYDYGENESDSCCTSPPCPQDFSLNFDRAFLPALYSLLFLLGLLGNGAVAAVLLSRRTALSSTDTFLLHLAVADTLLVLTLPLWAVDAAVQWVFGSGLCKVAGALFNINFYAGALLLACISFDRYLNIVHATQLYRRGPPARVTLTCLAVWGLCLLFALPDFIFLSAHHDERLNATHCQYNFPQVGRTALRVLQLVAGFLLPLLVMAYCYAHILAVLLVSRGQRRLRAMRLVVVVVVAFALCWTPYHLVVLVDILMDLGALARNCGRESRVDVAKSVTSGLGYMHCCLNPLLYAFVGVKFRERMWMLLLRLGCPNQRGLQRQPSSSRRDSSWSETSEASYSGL

Take `Cc1ccnn1CC(=O)N1CCN(c2ccc(C(F)(F)F)c3c2CN(c2nc(C(F)(F)F)cs2)CC3)C[C@H]1C` [Example 45, 2-(5-Methyl-pyrazol-1-yl)-1-{(R)-2-methyl-4-[5-trifluoromethyl-2-(4-trifluoromethyl-thiazol-2-yl)-1,2,3,4-tetrahydro-isoquinolin-8-yl]-piperazin-1-yl}-ethanone]: the IC50 came out at 12.7 nM.
Next, `Cc1nc(C)n(CC(=O)N2CCN(c3ccc(C(F)(F)F)c4c3CN(c3cnc(C5CC5)nc3)CC4)C[C@H]2C)n1` [Example 46, 1-{(R)-4-[2-(2-Cyclopropyl-pyrimidin-5-yl)-5-trifluoromethyl-1,2,3,4-tetrahydro-isoquinolin-8-yl]-2-methyl-piperazin-1-yl}-2-(3,5-dimethyl-[1,2,4]triazol-1-yl)-ethanone]: 4.37 nM; `C[C@@H]1CN(c2ccc(C(F)(F)F)c3c2CN(c2cnc(C4CC4)nc2)CC3)CCN1C(=O)Cn1ncc2cccnc21` [Example 47, 1-{(R)-4-[2-(2-Cyclopropyl-pyrimidin-5-yl)-5-trifluoromethyl-1,2,3,4-tetrahydro-isoquinolin-8-yl]-2-methyl-piperazin-1-yl}-2-pyrazolo[3,4-b]pyridin-1-yl-ethanone]: 7.27 nM; `Cc1ccn(CC(=O)N2CCN(c3ccc(C(F)(F)F)c4c3CN(c3cnc(C5CC5)nc3)CC4)C[C@H]2C)n1` [Example 48, 1-{(R)-4-[2-(2-Cyclopropyl-pyrimidin-5-yl)-5-trifluoromethyl-1,2,3,4-tetrahydro-isoquinolin-8-yl]-2-methyl-piperazin-1-yl}-2-(3-methyl-pyrazol-1-yl)-ethanone]: 1.4 nM.
Next, `Cc1ccnn1CC(=O)N1CCN(c2ccc(C(F)(F)F)c3c2CN(c2cnc(C4CC4)nc2)CC3)C[C@H]1C` [Example 49, 1-{(R)-4-[2-(2-Cyclopropyl-pyrimidin-5-yl)-5-trifluoromethyl-1,2,3,4-tetrahydro-isoquinolin-8-yl]-2-methyl-piperazin-1-yl}-2-(5-methyl-pyrazol-1-yl)-ethanone]: 3.56 nM; `Cc1nc(C)n(CC(=O)N2CCN(c3ccc(C(F)(F)F)c4c3CN(c3cnc(N(C)C)nc3)CC4)C[C@H]2C)n1` [Example 50, 1-{(R)-4-[2-(2-Dimethylamino-pyrimidin-5-yl)-5-trifluoromethyl-1,2,3,4-tetrahydro-isoquinolin-8-yl]-2-methyl-piperazin-1-yl}-2-(3,5-dimethyl-[1,2,4]triazol-1-yl)-ethanone]: 2.26 nM.
Next, `Cc1ccn(CC(=O)N2CCN(c3ccc(C(F)(F)F)c4c3CN(c3cnc(N(C)C)nc3)CC4)C[C@H]2C)n1` [Example 51, 1-{(R)-4-[2-(2-Dimethylamino-pyrimidin-5-yl)-5-trifluoromethyl-1,2,3,4-tetrahydro-isoquinolin-8-yl]-2-methyl-piperazin-1-yl}-2-(3-methyl-pyrazol-1-yl)-ethanone]: 4.93 nM; `Cc1ccnn1CC(=O)N1CCN(c2ccc(C(F)(F)F)c3c2CN(c2cnc(N(C)C)nc2)CC3)C[C@H]1C` [Example 52, 1-{(R)-4-[2-(2-Dimethylamino-pyrimidin-5-yl)-5-trifluoromethyl-1,2,3,4-tetrahydro-isoquinolin-8-yl]-2-methyl-piperazin-1-yl}-2-(5-methyl-pyrazol-1-yl)-ethanone]: 4.1 nM; `C[C@@H]1CN(c2ccc(C(F)(F)F)c3c2CN(c2cnc(N(C)C)nc2)CC3)CCN1C(=O)Cn1ncc2cccnc21` [Example 53, 1-{(R)-4-[2-(2-Dimethylamino-pyrimidin-5-yl)-5-trifluoromethyl-1,2,3,4-tetrahydro-isoquinolin-8-yl]-2-methyl-piperazin-1-yl}-2-pyrazolo[3,4-b]pyridin-1-yl-ethanone]: 6.15 nM.
On to `CCOc1ncc(N2CCc3c(C(F)(F)F)ccc(N4CCN(C(=O)Cn5nc(C)nc5C)[C@H](C)C4)c3C2)cn1` [Example 54, 2-(3,5-Dimethyl-[1,2,4]triazol-1-yl)-1-{(R)-4-[2-(2-ethoxy-pyrimidin-5-yl)-5-trifluoromethyl-1,2,3,4-tetrahydro-isoquinolin-8-yl]-2-methyl-piperazin-1-yl}-ethanone], for which the IC50 is 6.22 nM.
Next, `CCOc1ncc(N2CCc3c(C(F)(F)F)ccc(N4CCN(C(=O)Cn5nc(C)cc5C)[C@H](C)C4)c3C2)cn1` [Example 55, 2-(3,5-Dimethyl-pyrazol-1-yl)-1-{(R)-4-[2-(2-ethoxy-pyrimidin-5-yl)-5-trifluoromethyl-1,2,3,4-tetrahydro-isoquinolin-8-yl]-2-methyl-piperazin-1-yl}-ethanone]: 10 nM.
Next, `Cc1cc(C)n(CC(=O)N2CCN(c3ccc(C(F)(F)F)c4c3CN(c3ncc(-c5ccccc5)o3)CC4)C[C@H]2C)n1` [Example 56, 2-(3,5-Dimethyl-pyrazol-1-yl)-1-{(R)-2-methyl-4-[2-(5-phenyl-oxazol-2-yl)-5-trifluoromethyl-1,2,3,4-tetrahydro-isoquinolin-8-yl]-piperazin-1-yl}-ethanone]: 8.14 nM.
Next, `Cc1cc(C)n(CC(=O)N2CCN(c3ccc(C(F)(F)F)c4c3CN(c3nc5ccccc5s3)CC4)C[C@H]2C)n1` [Example 57, 1-[(R)-4-(2-Benzothiazol-2-yl-5-trifluoromethyl-1,2,3,4-tetrahydro-isoquinolin-8-yl)-2-methyl-piperazin-1-yl]-2-(3,5-dimethyl-pyrazol-1-yl)-ethanone]: 26.5 nM; `CCc1ncc(N2CCc3c(C(F)(F)F)ccc(N4CCN(C(=O)Cn5nc(C)nc5C)[C@H](C)C4)c3C2)cn1` [Example 58, 2-(3,5-Dimethyl-[1,2,4]triazol-1-yl)-1-{(R)-4-[2-(2-ethyl-pyrimidin-5-yl)-5-trifluoromethyl-1,2,3,4-tetrahydro-isoquinolin-8-yl]-2-methyl-piperazin-1-yl}-ethanone]: 16.9 nM.
Consider `Cc1nc(C)n(CC(=O)N2CCN(c3ccc(C(F)(F)F)c4c3CN(c3cnc(C(F)(F)F)nc3)CC4)C[C@H]2C)n1` [Example 59, 2-(3,5-Dimethyl-[1,2,4]triazol-1-yl)-1-{(R)-2-methyl-4-[5-trifluoromethyl-2-(2-trifluoromethyl-pyrimidin-5-yl)-1,2,3,4-tetrahydro-isoquinolin-8-yl]-piperazin-1-yl}-ethanone], for which the IC50 worked out at 12.3 nM.
Next, `C[C@@H]1CN(c2cccc3c2CN(C(=O)OCc2ccccc2)CC3)CCN1C(=O)Cn1cnc2cccnc21` [Example 60, 8-[(R)-4-(2-Imidazo[4,5-b]pyridin-3-yl-acetyl)-3-methyl-piperazin-1-yl]-3,4-dihydro-1H-isoquinoline-2-carboxylic acid benzyl ester]: 7.94 nM.
Next, `C[C@@H]1CN(c2cccc3c2CN(C(=O)C2CC2)CC3)CCN1C(=O)Cn1cnc2cccnc21` [Example 61, 1-[(R)-4-(2-Cyclopropanecarbonyl-1,2,3,4-tetrahydro-isoquinolin-8-yl)-2-methyl-piperazin-1-yl]-2-imidazo[4,5-b]pyridin-3-yl-ethanone]: 223 nM; `COc1ccc(C(=O)N2CCc3cccc(N4CCN(C(=O)Cn5cnc6cccnc65)[C@H](C)C4)c3C2)cc1` [Example 62, 2-Imidazo[4,5-b]pyridin-3-yl-1-{(R)-4-[2-(4-methoxy-benzoyl)-1,2,3,4-tetrahydro-isoquinolin-8-yl]-2-methyl-piperazin-1-yl}-ethanone]: 121 nM; `C[C@@H]1CN(c2cccc3c2CN(C(=O)Cc2cccnc2)CC3)CCN1C(=O)Cn1cnc2cccnc21` [Example 63, 2-Imidazo[4,5-b]pyridin-3-yl-1-{(R)-2-methyl-4-[2-(2-pyridin-3-yl-acetyl)-1,2,3,4-tetrahydro-isoquinolin-8-yl]-piperazin-1-yl}-ethanone]: 668 nM.
In the case of `COc1ccc(CCC(=O)N2CCc3cccc(N4CCN(C(=O)Cn5cnc6cccnc65)[C@H](C)C4)c3C2)cc1` [Example 64, 1-{8-[(R)-4-(2-Imidazo[4,5-b]pyridin-3-yl-acetyl)-3-methyl-piperazin-1-yl]-3,4-dihydro-1H-isoquinolin-2-yl}-3-(4-methoxy-phenyl)-propan-1-one], the IC50 was 188 nM.
Next, `C[C@@H]1CN(c2cccc3c2CN(C(=O)c2cocn2)CC3)CCN1C(=O)Cn1cnc2cccnc21` [Example 65, 2-Imidazo[4,5-b]pyridin-3-yl-1-{(R)-2-methyl-4-[2-(oxazole-4-carbonyl)-1,2,3,4-tetrahydro-isoquinolin-8-yl]-piperazin-1-yl}-ethanone]: 483 nM.
With `C[C@@H]1CN(c2cccc3c2CN(C(=O)Cn2ccc4ccccc42)CC3)CCN1C(=O)Cn1cnc2cccnc21` [Example 66, 2-Imidazo[4,5-b]pyridin-3-yl-1-{(R)-4-[2-(2-indol-1-yl-acetyl)-1,2,3,4-tetrahydro-isoquinolin-8-yl]-2-methyl-piperazin-1-yl}-ethanone], the IC50 was 304 nM.
